# Where two headings read alike, the source gives them in different places. Ends that are not written are not given here.
# What was measured:
# MRTF-A [1] = test: MRTF-A subcellular localisation by immunofluorescence; type: cell-based, mouse; settings: for effect of inhibitor on TPA block of serum-induced MRTF-A nuclear accumulation / inhibition of TPA-induced MRTF-A nuclear accumulation: U0126 10 μM, Gö6976 2 μM, Gö6983 6 μM; for effect of inhibitor on TPA block of serum-induced MRTF-A nuclear accumulation: TPA then 15% FCS; for inhibition of TPA-induced MRTF-A nuclear accumulation: pretreated 20 min
# Method: (§1) NIH3T3 cells were cultured in DMEM, 10% FCS.
# (§2) For immunofluorescence ([Vartiainen et al., 2007]), NIH3T3 cells were transfected in six-well plates (150000 /well), with 50 ng pEF-Flag-MRTF-PK derivatives, 100 ng pEF-MRTF-A derivatives, 50 ng MEK-R4F, 100 ng RafER, using Lipofectamine 2000 (Invitrogen).
# (§3) Data was processed using GraphPad Prism version 5.03.
# MRTF-A [2] = test: Site-specific MRTF-A phosphorylation (phosphospecific antibody immunoblot); type: cell-based, mouse; settings: for phosphorylation at analysed phospho-sites: 2 μM CD or 100 ng/ml TPA, sites analysed with phosphospecific antibodies; for S33 phosphorylation / S98 phosphorylation: 100 ng/ml TPA, U0126 10 μM
# Method: as §1, §3
# MRTF-A [3] = test: MRTF-A phosphorylation (SDS-PAGE mobility, immunoblot); type: cell-based, mouse; settings: for inhibition of MRTF-A phosphorylation by PKC inhibitor: inhibitor pretreatment 20 min, 100 ng/ml TPA 30 min
# Method: as §1, §3
# [4] = system: F-actin assembly in NIH3T3 cells; test: F- and G-actin quantitation (F:G ratio); type: cell-based, mouse; settings: n = 3; for effect of inhibitor on TPA inhibition of F-actin assembly: inhibitor 20 min, TPA 20 min, 15% FCS 20 min
# Method: Cells were processed as described ([Vartiainen et al., 2007]) with modifications. G- and F-actin were detected using 0.3 μM DN'ase I-Alexa Fluor 488 conjugate and 5 U/ml Alexa Fluor 647-phalloidin (Molecular Probes). After three washes in PBS, cells were analysed using the Cellomics ArrayScan. For each experiment, six technical replicates were performed. Statistical significance of alterations in F:G ratio was estimated by one-way ANOVA (Dunnett's multiple comparison test).
# PKC isoforms = settings: 2 μM Gö6976; ref Martiny-Baron et al., 1993; cited from earlier work
# Method: as §1
# ERK = ERK activation immunoblot; type: cell-based; settings: inhibitor pretreatment 20 min, 100 ng/ml TPA 30 min
# Method: as §1, §3
# MRTF-A [5] = settings: LatB; ref Vartiainen et al., 2007; cited from earlier work
# [6] = system: RevΔ MRTF-A GFP derivatives (Crm1-dependent NES); test: RevΔGFP nuclear export assay; type: cell-based; settings: 50 nM LMB
# MRTF-A(2–204)-PK = MRTF-A(2–204)-PK subcellular localisation by immunofluorescence; type: cell-based, mouse; settings: TPA
# Method: as §1, §2, §3
# MRTF-SRF target genes = settings: 100 ng/ml TPA, 0.25-3 hr; n = 2
# MLC2 = MLC2 S19; 100 ng/ml TPA, then 15% FCS
# RhoA = settings: 100 ng/ml TPA, then 15% FCS
# Method: RhoGTP pull-downs used Rho activation assay (Millipore) with modifications. Cells were grown in 15 cm dishes, washed twice in ice-cold TBS, scraped in 400 μl 2x lysis buffer with 16% glycerol, made to 800 μl with water, and clarified. 20 μl was retained as input, and the remainder incubated with 20 μl GST-Rhotekin for 45 min at 4°C. After three 1 ml washes with Lysis buffer, proteins were eluted with SDS loading buffer and Rho recovery assessed by immunoblotting.
# MEK = settings: 10 μM U0126; ref Bain et al., 2007; cited from earlier work
# Method: as §1
# G-actin = target: T1, G-actin (Oryctolagus cuniculus, UniProt P68135); test: Size exclusion chromatography of G-actin / Spacer1-RPEL2 peptide complexes; type: binding; settings: SEC, Spacer1-RPEL2 peptides; for apparent molecular mass of G-actin complex: Superdex 200, 20 mM Tris (pH 8), 100 mM NaCl; for apparent stoichiometry of G-actin binding: Superdex 200, pH 8
# T1 construct: Actin was prepared as described ([Mouilleron et al., 2008]); from tissue; host or cells: rabbit skeletal muscle (own knowledge of the cited method)
# Method: Peptides were synthesised by the London Research Institute (LRI) peptide synthesis platform. MRTF-A(94–142), FAM-MRTF-A(62–104) and FAM-MRTF-A(67–98) derivatives are as in Figure 4—figure supplement 2A. Phosphorylated 10–12 mer peptides for immunizations were centred on the phosphoacceptor site (see Table 1). Actin was prepared as described ([Mouilleron et al., 2008]).
# Preparation of LatB-actin and fluorescence polarisation anisotropy assay were described ([Guettler et al., 2008]). Size exclusion chromatography was on Superdex 200 column equilibrated in 20 mM Tris (pH 8), 100 mM NaCl, 3 mM MgCl2, 0.2 mM EGTA, 0.3 mM TCEP [(tris(2-carboxyethyl)phosphine)], 5% (v/v) glycerol, calibrated with globular proteins of known molecular weight.
# [7] = NIH3T3 cells, 100 ng/ml TPA, 2 μM CD or 50 nM LMB
# [8] = 100 ng/ml TPA 20 min, then 15% FCS 20 min
compound,measurement,setting,value
CC/C(=C(\c1ccc(O)cc1)c1ccc(OCCN(C)C)cc1)c1ccccc1 [4-hydroxytamoxifen],block of serum-induced nuclear accumulation by pre-treatment,"MRTF-A [1]; Raf-ER cells, 1 μM 4OHT 20 min, then 15% FCS 20 min",Only pre-treatment with TPA significantly blocked serum-induced nuclear accumulation
"C=C1[C@@H](C)[C@H]2[C@H](Cc3ccccc3)NC(=O)[C@]23[C@H](OC(C)=O)/C=C/[C@@](C)(O)C(=O)[C@@H](C)C/C=C/[C@H]3[C@@H]1O [CD, cytochalasin D]",phosphorylation at analysed phospho-sites,MRTF-A [2],induced a gradual accumulation at all analysed sites
same,phosphorylation of MRTF-A/MC fusion protein,MRTF-A [3]; 2 μM CD,exhibited CD-induced phosphorylation similar to that seen in MRTF-A
same,ERK dependence of CD-induced MRTF-A phosphorylation,MRTF-A [3]; 2 μM CD with and without 10 μM U0126,this occurred independently of ERK
same,phosphorylation of MRTF-A B2A (NLS mutant),"MRTF-A [3]; 15% FCS or 2 μM CD, 10 μM U0126","could be induced by serum, but not CD"
same,MRTF-A phosphorylation,MRTF-A [3]; [7],also induced MRTF-A phosphorylation
Cn1c2ccccc2c2c3c(c4c5ccccc5n(CCC#N)c4c21)CNC3=O [Gö6976],effect of inhibitor on TPA inhibition of F-actin assembly,[4],not by U0126 or Gö6976
same,PKC isoform block,PKC isoforms,insufficient to block non-novel PKC isoforms
same,inhibition of TPA-induced ERK activation,ERK,only the latter completely inhibited ERK activation
same,effect of inhibitor on TPA block of serum-induced MRTF-A nuclear accumulation,MRTF-A [1],insensitive to U0126 and Gö6976
same,inhibition of TPA-induced MRTF-A nuclear accumulation,MRTF-A [1]; 100 ng/ml TPA,sensitive to both the conventional-PKC inhibitor Gö6976 and the pan-PKC inhibitor Gö6983
same,inhibition of MRTF-A phosphorylation by PKC inhibitor,MRTF-A [3],only the latter completely inhibited ERK activation and MRTF-A phosphorylation
COc1ccc2c(c1)c(C1=C(c3c[nH]c4ccccc34)C(=O)NC1=O)cn2CCCN(C)C [Gö6983],effect of inhibitor on TPA inhibition of F-actin assembly,[4],relieved by Gö6983
same,inhibition of TPA-induced ERK activation,ERK,completely inhibited ERK activation
same,effect of inhibitor on TPA block of serum-induced MRTF-A nuclear accumulation,MRTF-A [1],relieved by Gö6983
same,inhibition of TPA-induced MRTF-A nuclear accumulation,MRTF-A [1]; 100 ng/ml TPA,sensitive to both the conventional-PKC inhibitor Gö6976 and the pan-PKC inhibitor Gö6983
same,inhibition of MRTF-A phosphorylation by PKC inhibitor,MRTF-A [3],completely inhibited ERK activation and MRTF-A phosphorylation
"C/C1=C/C(=O)O[C@@H]2C[C@@H](CC[C@H](C)/C=C\CC1)O[C@@](O)([C@@H]1CSC(=O)N1)C2 [LatB, Latrunculin B]",cytoplasmic localisation of MRTF-A,MRTF-A [5],restore cytoplasmic localisation of MRTF-A
same,return of serum-induced MRTF-A phosphorylation,"MRTF-A [3]; NIH3T3, 15% FCS 30 min, then 1 μM LatB",rapid return of MRTF-A phosphorylation to prestimulation levels
CCC(=C/[C@H](C)C/C=C/C(C)=C/[C@@H](C)C(=O)[C@@H](C)[C@H](O)[C@@H](C)C/C(C)=C/C(=O)O)/C=C/[C@@H]1OC(=O)C=C[C@@H]1C [Leptomycin B],nuclear localisation of RevΔMRTF-A derivatives,[6],"Nuclear localisation could be restored by serum stimulation, or by treatment with Leptomycin B (LMB)"
same,nuclear localisation of RevΔMRTF-A derivatives,[6]; listed as LMB,both proteins accumulated in the nucleus upon LMB treatment
same,MRTF-A phosphorylation,MRTF-A [3]; [7],did not induce phosphorylation unless the cells were simultaneously stimulated with CD or FCS
CCCCCCCCCCCCCC(=O)O[C@@H]1[C@@H](C)[C@@]2(O)[C@@H](C=C(CO)C[C@]3(O)C(=O)C(C)=C[C@@H]23)[C@H]2C(C)(C)[C@]12OC(C)=O [TPA],serum-induced F-actin assembly,[4]; [8],inhibited serum-induced F-actin assembly
same,nuclear accumulation of MRTF-A(2–204)-PK,MRTF-A(2–204)-PK,promoted nuclear accumulation of MRTF-A(2–204)-PK
same,induction of transcription of MRTF-SRF target genes,MRTF-SRF target genes,induced transcription of MRTF-SRF target genes in an ERK-dependent manner
same,serum-induced phosphorylation of MLC2,MLC2,"inhibited serum-induced accumulation of Rho.GTP, and phosphorylation of MLC2, independently of ERK but in a PKC-dependent manner"
same,serum-induced accumulation of Rho.GTP,RhoA,inhibited serum-induced accumulation of Rho.GTP
same,S33 phosphorylation,MRTF-A [2],could be slightly increased upon serum or TPA stimulation
same,S98 phosphorylation,MRTF-A [2],by TPA in a U0126-sensitive fashion
same,phosphorylation at analysed phospho-sites,MRTF-A [2],induced a gradual accumulation at all analysed sites
same,inhibition of serum-induced MRTF-A nuclear accumulation by TPA pretreatment,MRTF-A [1]; [8],effectively blocked MRTF-A nuclear accumulation upon subsequent serum stimulation
same,proportion of cells with predominantly nuclear MRTF-A,"MRTF-A [1]; 100 ng/ml TPA, 20 min",substantially increased the proportion of cells with predominantly nuclear MRTF-A
same,MRTF-A phosphorylation,MRTF-A [3],also induced MRTF-A phosphorylation
N#CC(=C(/N)Sc1ccccc1N)/C(C#N)=C(/N)Sc1ccccc1N [U0126],effect of inhibitor on TPA inhibition of F-actin assembly,[4],not by U0126 or Gö6976
same,MEK inhibition and selectivity,MEK,sufficient to inhibit MEK activation without substantial effects on other kinases
same,S33 phosphorylation,MRTF-A [2],Induced S33 phosphorylation was U0126-sensitive
same,S98 phosphorylation,MRTF-A [2],U0126-sensitive
same,effect of inhibitor on TPA block of serum-induced MRTF-A nuclear accumulation,MRTF-A [1],insensitive to U0126 and Gö6976
"S1-R2 WT: Spacer1-RPEL2 peptide (LKLKRARLADDLNEKIAQRPGPMELVEKNILPVESSLKEAIIVGQVNYP; UniProt Q8K4J6 94-142, looked up, fragment)",apparent molecular mass of G-actin complex,G-actin,70.9 kDa
same,apparent stoichiometry of G-actin binding,G-actin,1.5 actins
"S1-R2 pS98: Spacer1-RPEL2 peptide phosphorylated at S98 (LKLKRARLADDLNEKIAQRPGPMELVEKNILPVESSLKEAIIVGQVNYP; also: phosphorylated at S98, position not located in chain; UniProt Q8K4J6 94-142, looked up, fragment)",apparent molecular mass of G-actin complex,G-actin,64.1 kDa
same,apparent stoichiometry of G-actin binding,G-actin,1.4 actins

# Source: article PMC4963197, “Phosphorylation acts positively and negatively to regulate MRTF-A subcellular localisation and activity” (eLife, 2016)
